Data from US9365511B2, “Biphenyl-ethyl-pyrrolidine derivatives as histamine H3 receptor modulators for the treatment of cognitive disorders” (Arena Pharmaceuticals, Inc., priority 2013, dated 2016).
Entries after “also recorded” stand apart in the source; their conditions may differ. Where two headings read alike, the source gives them in different places.

What was measured:
human H3 receptor = human H3 receptor (Homo sapiens (Human), UniProt Q9Y5N1); assay: Human H3 receptor HTRF cAMP assay; format: cell-based; details: HEK293 cells expressing the human H3 receptor, forskolin 2 μM; read-out: IC50 H3R
Source text: Homogeneous time-resolved fluorescence assays (HTRF®, Cisbio) detect levels of cAMP in lysed cell preparations using a europium or terbium cryptate-labeled anti-cAMP antibody and fluorophore-labeled cAMP (cAMP-d2). In the absence of exogenous cAMP, the anti-cAMP antibody binds to cAMP-d2. Photoexcitation of the cryptate donor results in a combination of cryptate emission at 620 nm and fluorescence resonance energy transfer (FRET) from the cryptate to the acceptor d2 fluorophore, which then fluoresces at 665 nm. The 620/665 nm emission ratio is monitored. In the presence of exogenous cAMP, which competes with cAMP-d2 for binding to the anti-cAMP antibody, FRET is decreased and the […], providing a sensitive and accurate means to measure cAMP levels in biological assays.
Compounds of the present invention were evaluated using the human H3 receptor (H3R) HTRF cAMP assay. In this assay, HEK293 cells expressing the human H3 receptor were suspended in PBS containing 100 μM IBMX and plated into 384-well assay plates (Perkin Elmer Proxiplate 384-Plus; 15,000 cells per well; 5 μL plating volume) and allowed to equilibrate for an hour. Test compounds were serially diluted in 100% DMSO and then further diluted in PBS containing forskolin (2 μM). Test compounds (5 μL) were then added to the assay plate and the mixture was incubated for 1 hour. HTRF assay reagents (Cisbio, Dynamic 2 cAMP Kit), cAMP-d2 and cryptate-labeled anti-cAMP antibody, are mixed with cell lysis buffer and added to the assay plate. After 1-hour incubation with these reagents, the assay plate was read on an HTRF-compatible microplate reader (Perkin Elmer EnVision or BMG Pherastar). A cAMP standard curve was included on each assay plate and HTRF emission ratios for test compounds were fit to this curve to generate accurate measures of cAMP levels in each test well.

[1] = test system: histamine-induced scratching behavior in mice; assay: Histamine-induced model for pruritus (Example 5); format: in vivo, C57BL/6 mice; details: oral administration, histamine 3 μmol s.c. 30 min post-dosing, bouts counted 0-30 min, FIG. 5
Procedure: C57BL/6 mice (9 per group) were administered with either vehicle (0.5% Methocellulose) or Compound 3. Thirty minutes post-dosing, the mice were injected with histamine (3 μmol) subcutaneously and placed in a clear observation box. Mice were video recorded and the number of scratching bouts that occurred between 0 and 30 minutes was counted after histamine injection.

[2] = test system: histamine-induced scratching behavior in mice; assay: Histamine-induced model for pruritus (Example 6); format: in vivo, C57BL/6j male mice; details: oral administration, histamine s.c. 30 min post-dosing, bouts counted 5-15 min, FIG. 6
Procedure: H3R inhibitors, Compound 3 and Compound 11, were dissolved in 0.5% methylcellulose at the appropriate concentration and 100 μL were administered orally to 8-week-old C57BL/6j male mice. Thirty minutes post-dosing, 25 μL of 40 mg/mL histamine solution was injected subcutaneously at the rostral part of the back. Mice were video recorded and the number of scratching bouts that occurred between 5 and 15 minutes was counted after histamine injection.

[3] = Brain to plasma ratio determination in male C57BL6 mouse; format: in vivo, Male C57BL6 mice
Procedure: Male C57BL6 mice were administered Compound 3 at 3 mg/kg by either intraperitoneal injection (IP) or oral gavage (PO). Plasma and brain samples were collected at 0.5 and 2.0 h post-dose. Blood samples were collected via eye bleed, followed by decapitation and extraction of the brain from the cranial cavity. Blood was treated with 0.5% EDTA; plasma was separated by centrifugation. Brain tissue was placed in ice-cold containers. Plasma and brain samples were frozen at approximately −70° C. until assayed at Arena Pharmaceuticals. Compound 3 plasma and brain concentrations were determined by LC/MS/MS. The lower limit of quantitation (i.e., LLQ) was 25.0 and 3.0 ng/mL for plasma and brain, respectively.

Sequence of human H3 receptor (Q9Y5N1 whole entry): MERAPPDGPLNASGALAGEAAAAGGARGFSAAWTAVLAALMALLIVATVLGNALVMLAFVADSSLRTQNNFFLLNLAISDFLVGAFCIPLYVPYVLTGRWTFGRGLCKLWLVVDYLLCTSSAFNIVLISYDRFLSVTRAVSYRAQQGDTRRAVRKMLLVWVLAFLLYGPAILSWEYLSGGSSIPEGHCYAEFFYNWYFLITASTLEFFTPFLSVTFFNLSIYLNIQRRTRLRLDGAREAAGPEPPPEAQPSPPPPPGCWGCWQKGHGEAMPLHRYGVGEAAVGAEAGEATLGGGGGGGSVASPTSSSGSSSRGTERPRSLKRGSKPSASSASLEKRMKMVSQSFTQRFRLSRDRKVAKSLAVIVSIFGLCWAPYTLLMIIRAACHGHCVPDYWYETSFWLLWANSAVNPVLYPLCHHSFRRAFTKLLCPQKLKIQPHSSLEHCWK

Compound: C[C@@H]1CCCN1CCc1ccc(-c2ccc(CCC(=O)O)cc2)cc1 [Compound 3, (R)-3-(4′-(2-(2-Methylpyrrolidin-1-yl)ethyl)biphenyl-4-yl)propanoic Acid]
- IC50 (human H3 receptor): 2.5 nM
- histamine-induced scratching behavior (number of scratching bouts) [1]: effectively inhibits histamine-induced pruritus; also recorded: inhibit histamine-induced scratching behavior
- histamine-induced scratching behavior (number of scratching bouts) [2]: effectively inhibit histamine-induced pruritus; also recorded: inhibit histamine-induced scratching behavior
- concentration at 0.5 h ([3]; C57BL6, brain, 3 mg/kg PO, 0.5 h post-dose, read-out: brain concentration): 39.8 ± 22.7 ng/g
- concentration at 2 h ([3]; C57BL6, brain, 3 mg/kg PO, 2.0 h post-dose, read-out: brain concentration): 29.1 ± 7 ng/g
- concentration at 0.5 h ([3]; C57BL6, brain, intraperitoneal, 3 mg/kg IP, 0.5 h post-dose, read-out: brain concentration): 71.7 ± 10.7 ng/g
- concentration at 2 h ([3]; C57BL6, brain, intraperitoneal, 3 mg/kg IP, 2.0 h post-dose, read-out: brain concentration): 17.2 ± 7.5 ng/g
- Kp ([3]; C57BL6, brain/plasma, 3 mg/kg IP, independent of time): ~0.05
- Kp at 0.5 h ([3]; C57BL6, brain/plasma, 3 mg/kg PO, 0.5 h post-dose): 0.04
- Kp at 2 h ([3]; C57BL6, brain/plasma, 3 mg/kg PO, 2.0 h post-dose): 0.05
- concentration at 0.5 h ([3]; C57BL6, plasma, 3 mg/kg PO, 0.5 h post-dose, read-out: plasma concentration): 1080 ± 487 ng/mL
- concentration at 2 h ([3]; C57BL6, plasma, 3 mg/kg PO, 2.0 h post-dose, read-out: plasma concentration): 619 ± 185 ng/mL
- concentration at 0.5 h ([3]; C57BL6, plasma, intraperitoneal, 3 mg/kg IP, 0.5 h post-dose, read-out: plasma concentration): 1350 ± 104 ng/mL
- concentration at 2 h ([3]; C57BL6, plasma, intraperitoneal, 3 mg/kg IP, 2.0 h post-dose, read-out: plasma concentration): 364 ± 135 ng/mL
